Source: patent US12655106B2 (Eikonizo Therapeutics, Inc., priority 2021, dated 2026)
Blank lines part the entries; values can stand above or below the compound they belong to.

Tests used:
Full length Human HDAC6 = molecular target: T1, Full length Human HDAC6 (Homo sapiens, UniProt Q9UBN7); experiment: Caliper endpoint assay for HDAC enzymatic activity (HDAC6); assay type: biochemical; conditions: for IC50: in vitro enzymatic, Caliper endpoint assay, 30 min pre-incubation, 1 μM substrate peptide; for Selectivity (6 v 8): ratio of HDAC8 IC50/HDAC6 IC50
T1 construct: Full length Human HDAC6; FLAG (C); host or cells: baculovirus expression system
T1 sequence (Q9UBN7 1-1215): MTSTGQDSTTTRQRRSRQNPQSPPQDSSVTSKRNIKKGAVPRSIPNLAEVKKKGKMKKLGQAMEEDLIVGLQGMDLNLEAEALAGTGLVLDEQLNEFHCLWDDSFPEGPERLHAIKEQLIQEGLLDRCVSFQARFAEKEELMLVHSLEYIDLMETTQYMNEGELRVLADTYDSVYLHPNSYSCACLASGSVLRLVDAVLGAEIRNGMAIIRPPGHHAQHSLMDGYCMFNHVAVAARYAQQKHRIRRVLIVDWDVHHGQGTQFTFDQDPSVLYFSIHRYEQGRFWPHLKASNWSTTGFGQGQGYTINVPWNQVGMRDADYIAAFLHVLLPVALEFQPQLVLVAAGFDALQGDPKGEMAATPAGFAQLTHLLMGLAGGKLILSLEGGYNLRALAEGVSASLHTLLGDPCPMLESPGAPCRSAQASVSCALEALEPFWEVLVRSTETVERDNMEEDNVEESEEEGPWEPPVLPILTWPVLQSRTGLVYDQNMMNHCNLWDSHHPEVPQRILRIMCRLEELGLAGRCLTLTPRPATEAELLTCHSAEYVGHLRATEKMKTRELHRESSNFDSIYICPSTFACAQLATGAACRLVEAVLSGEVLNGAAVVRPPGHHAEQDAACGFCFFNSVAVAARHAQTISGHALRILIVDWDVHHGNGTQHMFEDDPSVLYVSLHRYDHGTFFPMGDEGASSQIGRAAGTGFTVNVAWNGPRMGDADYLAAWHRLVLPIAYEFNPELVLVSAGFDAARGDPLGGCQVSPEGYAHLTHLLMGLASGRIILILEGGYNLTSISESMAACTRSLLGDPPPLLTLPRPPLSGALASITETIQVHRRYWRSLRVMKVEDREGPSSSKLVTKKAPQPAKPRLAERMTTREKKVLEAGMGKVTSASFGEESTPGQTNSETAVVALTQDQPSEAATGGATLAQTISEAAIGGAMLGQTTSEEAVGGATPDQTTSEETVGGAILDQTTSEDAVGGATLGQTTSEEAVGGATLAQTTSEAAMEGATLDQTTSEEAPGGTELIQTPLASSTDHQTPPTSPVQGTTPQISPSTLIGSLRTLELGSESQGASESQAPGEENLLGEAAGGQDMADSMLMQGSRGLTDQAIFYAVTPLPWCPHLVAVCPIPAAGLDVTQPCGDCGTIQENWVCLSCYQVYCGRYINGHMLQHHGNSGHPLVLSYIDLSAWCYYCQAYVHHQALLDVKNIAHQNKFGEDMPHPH

Full length Human HDAC8 = molecular target: T2, Full length Human HDAC8 (Homo sapiens, UniProt Q9BY41); experiment: Caliper endpoint assay for HDAC enzymatic activity (HDAC8); assay type: biochemical; conditions: in vitro enzymatic, 30 min pre-incubation, 1 μM substrate peptide
T2 construct: Full length Human HDAC8; HIS (N); host or cells: baculovirus expression system
T2 sequence (Q9BY41 1-377): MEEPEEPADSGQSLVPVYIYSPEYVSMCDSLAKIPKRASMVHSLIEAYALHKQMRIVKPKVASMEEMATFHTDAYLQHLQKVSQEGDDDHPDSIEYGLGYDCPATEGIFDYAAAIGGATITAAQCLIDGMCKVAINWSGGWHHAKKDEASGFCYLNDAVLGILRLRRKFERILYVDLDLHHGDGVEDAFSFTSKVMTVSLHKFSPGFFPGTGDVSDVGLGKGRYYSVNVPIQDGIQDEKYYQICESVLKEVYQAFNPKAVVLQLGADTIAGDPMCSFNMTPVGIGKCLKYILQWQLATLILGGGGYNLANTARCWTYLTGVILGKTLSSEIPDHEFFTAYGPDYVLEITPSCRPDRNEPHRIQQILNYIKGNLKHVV

Structure (SMILES): CC[C@@H](c1ccc(C(=O)NO)cc1F)N1CCC2(CCCCC2)C1 (single isomer, unassigned) [Compound 237]
- IC50 (Full length Human HDAC6): 0.1 to 1 µM
- Selectivity (6 v 8) (Full length Human HDAC6): II (II: >1-10)
- IC50 (Full length Human HDAC8): 1 to 10 µM

Structure (SMILES): O=C(NO)c1cc(F)c2c(c1)C[C@@H]1CCCN1C2 (single isomer, unassigned) [Compound 119]
- IC50 (Full length Human HDAC6): 0.1 to 1 µM
- Selectivity (6 v 8) (Full length Human HDAC6): III (III: >10-100)
- IC50 (Full length Human HDAC8): 10 to 100 µM

Structure (SMILES): CN1CC2CC(C1)C2CN1CCc2cc(C(=O)NO)cc(F)c2C1 (stereo not drawn) [Compound 463, 8-fluoro-2-[(3-methyl-3-azabicyclo[3.1.1]heptan-6-yl)methyl]-3,4-dihydro-1H-isoquinoline-6-carbohydroxamic acid]
- IC50 (Full length Human HDAC6): 0.001 to 0.1 µM
- Selectivity (6 v 8) (Full length Human HDAC6): IV (IV: >100-1000)
- IC50 (Full length Human HDAC8): 10 to 100 µM

Structure (SMILES): CN1CCC[C@@]2(CC[C@@H]2N2CCc3cc(C(=O)NO)cc(F)c3C2)C1 (single isomer, unassigned) [Compound 364]
- IC50 (Full length Human HDAC6): 0.001 to 0.1 µM
- Selectivity (6 v 8) (Full length Human HDAC6): IV (IV: >100-1000)
- IC50 (Full length Human HDAC8): 10 to 100 µM

Structure (SMILES): O=C(NO)c1cc(F)c2c(c1)CCN(C1CC3(CCOCC3)C1)C2 [Compound 179, 8-Fluoro-N-hydroxy-2-(7-oxaspiro[3.5]nonan-2-yl)-1,2,3,4-tetrahydroisoquinoline-6-carboxamide]
- IC50 (Full length Human HDAC6): 0.001 to 0.1 µM
- Selectivity (6 v 8) (Full length Human HDAC6): V (V: >1000)
- IC50 (Full length Human HDAC8): > 100 µM

Structure (SMILES): O=C(NO)c1cc(F)c2c(c1)CCN([C@@H]1CC[C@@]13CCOC3)C2 (single isomer, unassigned) [Compound 317]
- IC50 (Full length Human HDAC6): 0.001 to 0.1 µM
- Selectivity (6 v 8) (Full length Human HDAC6): IV (IV: >100-1000)
- IC50 (Full length Human HDAC8): 10 to 100 µM

The next lines start with the values.

- IC50 (Full length Human HDAC6): 0.001 to 0.1 µM
- Selectivity (6 v 8) (Full length Human HDAC6): IV (IV: >100-1000)
- IC50 (Full length Human HDAC8): 10 to 100 µM
Structure (SMILES): CC(=O)N1CC[C@@H](N2CCc3cc(C(=O)NO)cc(F)c3C2)CC12CCC2 (single isomer, unassigned) [Compound 442]

- IC50 (Full length Human HDAC6): 0.001 to 0.1 µM
- Selectivity (6 v 8) (Full length Human HDAC6): IV (IV: >100-1000)
- IC50 (Full length Human HDAC8): 10 to 100 µM
Structure (SMILES): CC(=O)N1CC2(CCC(CN3CCc4cc(C(=O)NO)cc(F)c4C3)CC2)C1 [Compound 467, 2-[(2-acetyl-2-azaspiro[3.5]nonan-7-yl)methyl]-8-fluoro-3,4-dihydro-1H-isoquinoline-6-carbohydroxamic acid]

- IC50 (Full length Human HDAC6): 0.001 to 0.1 µM
- Selectivity (6 v 8) (Full length Human HDAC6): IV (IV: >100-1000)
- IC50 (Full length Human HDAC8): 10 to 100 µM
Structure (SMILES): CC(=O)N1CC2(CCC(N3CCc4cc(C(=O)NO)cc(F)c4C3)CC2)C1 [Compound 429, 2-(2-acetyl-2-azaspiro[3.5]nonan-7-yl)-8-fluoro-3,4-dihydro-1H-isoquinoline-6-carbohydroxamic acid]

- IC50 (Full length Human HDAC6): > 100 µM
- Selectivity (6 v 8) (Full length Human HDAC6): V (V: >1000)
- IC50 (Full length Human HDAC8): 10 to 100 µM
Structure (SMILES): O=C(NO)c1ccc2c(c1F)CCN(C1CC3(CCCCC3)C1)C2 [Compound 506, 5-fluoro-N-hydroxy-2-(spiro[3.5]nonan-2-yl)-1,2,3,4-tetrahydroisoquinoline-6-carboxamide]

- IC50 (Full length Human HDAC6): 0.001 to 0.1 µM
- Selectivity (6 v 8) (Full length Human HDAC6): III (III: >10-100)
- IC50 (Full length Human HDAC8): 1 to 10 µM
Structure (SMILES): CC[C@H]1Cc2c(F)cc(C(=O)NO)cc2CN1CC12CC3CC(CC(C3)C1)C2 (single isomer, unassigned) [Compound 508]

- IC50 (Full length Human HDAC6): 0.001 to 0.1 µM
- Selectivity (6 v 8) (Full length Human HDAC6): V (V: >1000)
- IC50 (Full length Human HDAC8): 10 to 100 µM
Structure (SMILES): O=C(NO)c1cc(F)c2c(c1)CCN([C@@H]1CCC3(CCC3)C1)C2 (single isomer, unassigned) [Compound 384]

- IC50 (Full length Human HDAC6): 0.001 to 0.1 µM
- Selectivity (6 v 8) (Full length Human HDAC6): IV (IV: >100-1000)
- IC50 (Full length Human HDAC8): 10 to 100 µM
Structure (SMILES): [2H]c1c(C(=O)NO)ccc2c1CCN(C1CC3(CCCCC3)C1)C2 [Compound 505, N-hydroxy-2-(spiro[3.5]nonan-2-yl)-1,2,3,4-tetrahydroisoquinoline-5-d-6-carboxamide]

- IC50 (Full length Human HDAC6): 0.001 to 0.1 µM
- Selectivity (6 v 8) (Full length Human HDAC6): IV (IV: >100-1000)
- IC50 (Full length Human HDAC8): 10 to 100 µM
Structure (SMILES): CC[C@H]1Cc2c(F)cc(C(=O)NO)cc2CN1C1COC1 (single isomer, unassigned) [Compound 601]
